Experimental data taken from US6576663B2, “6-Keto prostaglandin F1α and analogs for treating dry eye” (Alcon, Inc., priority 1999, dated 2003).

Tests used:
[1] = system: intestinal epithelial cells; conditions: released by intestinal epithelial cells in response to hypoxia; cited from earlier work
[2] = system: human conjuctival epithelium; experiment: mucin production in human conjuctival epithelium; assay type: cell-based

In the case of CCCCC[C@H](O)/C=C/[C@@H]1[C@@H](CC(=O)CCCCC(=O)O)[C@@H](O)C[C@H]1O [6-keto PGF1α, 6-keto-PGF1α], the chloride secretagogue activity [1] is listed as “potent chloride secretagogue” and the mucin production [2] is listed as “stimulate mucin production”.
